#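 96-well plates; 48 h exposure; 5 concentrations. Endpoints by linear interpolation between flanking doses. Not reached: highest tested concentration assigned. TGI marks complete inhibition of growth.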
# Columns and labels:
# Experiment in all cases: NCI anticancer screen, dose series, 48 h
# 786-0 renal = system: 786-0 renal
# A549 NSCLC = system: A549 NSCLC
# ACHN renal = system: ACHN renal
# CCRF-CEM leukemia = system: CCRF-CEM leukemia
# COLO 205 colon = system: COLO 205 colon
# DU-145 prostate = system: DU-145 prostate
# EKVX NSCLC = system: EKVX NSCLC
# HCC-2998 colon = system: HCC-2998 colon
# HCT-116 colon = system: HCT-116 colon
# HCT-15 colon = system: HCT-15 colon
# HL-60(TB) leukemia = system: HL-60(TB) leukemia
# HOP-62 NSCLC = system: HOP-62 NSCLC
# HOP-92 NSCLC = system: HOP-92 NSCLC
# HS 578T breast = system: HS 578T breast
# HT29 colon = system: HT29 colon
# IGROV1 ovarian = system: IGROV1 ovarian
# K-562 leukemia = system: K-562 leukemia
# KM12 colon = system: KM12 colon
# LOX IMVI melanoma = system: LOX IMVI melanoma
# M14 melanoma = system: M14 melanoma
# MDA-MB-231 breast = system: MDA-MB-231 breast
# MDA-MB-435 = system: MDA-MB-435
# MDA-N = system: MDA-N
# MOLT-4 leukemia = system: MOLT-4 leukemia
# NCI-H226 lung = system: NCI-H226 lung
# NCI-H23 lung = system: NCI-H23 lung
# NCI-H460 lung = system: NCI-H460 lung
# NCI-H522 lung = system: NCI-H522 lung
# NCI/ADR-RES ovarian = system: NCI/ADR-RES ovarian
# OVCAR-3 ovarian = system: OVCAR-3 ovarian
# OVCAR-5 ovarian = system: OVCAR-5 ovarian
# OVCAR-8 ovarian = system: OVCAR-8 ovarian
# PC-3 prostate = system: PC-3 prostate
# RPMI-8226 leukemia = system: RPMI-8226 leukemia
# RXF 393 renal = system: RXF 393 renal
# SF-268 CNS = system: SF-268 CNS
# SF-295 CNS = system: SF-295 CNS
# SF-539 CNS = system: SF-539 CNS
# SK-MEL-2 melanoma = system: SK-MEL-2 melanoma
# SK-MEL-28 melanoma = system: SK-MEL-28 melanoma
# SK-MEL-5 melanoma = system: SK-MEL-5 melanoma
# SK-OV-3 ovarian = system: SK-OV-3 ovarian
# SN12C renal = system: SN12C renal
# SNB-19 CNS = system: SNB-19 CNS
# SNB-75 CNS = system: SNB-75 CNS
# SR leukemia = system: SR leukemia
# SW-620 colon = system: SW-620 colon
# T-47D breast = system: T-47D breast
# TK-10 renal = system: TK-10 renal
# U251 CNS = system: U251 CNS
# UACC-257 melanoma = system: UACC-257 melanoma
# UACC-62 melanoma = system: UACC-62 melanoma
smiles,measurement,setting,value
COC(=O)c1ccccc1C1=C([N+](=O)[O-])C(c2ccccc2)C(C#N)=C(N)O1 (configuration not stated),TGI,786-0 renal,> 100 µM
same,TGI,A549 NSCLC,> 100 µM
same,TGI,ACHN renal,> 100 µM
same,TGI,CCRF-CEM leukemia,> 100 µM
same,TGI,COLO 205 colon,> 100 µM
same,TGI,DU-145 prostate,> 100 µM
same,TGI,EKVX NSCLC,> 100 µM
same,TGI,HCC-2998 colon,> 100 µM
same,TGI,HCT-116 colon,> 100 µM
same,TGI,HCT-15 colon,46.6 µM
same,TGI,HL-60(TB) leukemia,> 100 µM
same,TGI,HOP-62 NSCLC,> 100 µM
same,TGI,HOP-92 NSCLC,> 100 µM
same,TGI,HS 578T breast,> 100 µM
same,TGI,HT29 colon,> 100 µM
same,TGI,IGROV1 ovarian,> 100 µM
same,TGI,K-562 leukemia,> 100 µM
same,TGI,KM12 colon,> 100 µM
same,TGI,LOX IMVI melanoma,> 100 µM
same,TGI,M14 melanoma,> 100 µM
same,TGI,MDA-MB-231 breast,> 100 µM
same,TGI,MDA-MB-435,> 100 µM
same,TGI,MDA-N,> 100 µM
same,TGI,MOLT-4 leukemia,> 100 µM
same,TGI,NCI-H226 lung,> 100 µM
same,TGI,NCI-H23 lung,> 100 µM
same,TGI,NCI-H460 lung,> 100 µM
same,TGI,NCI-H522 lung,30.8 µM
same,TGI,NCI/ADR-RES ovarian,> 100 µM
same,TGI,OVCAR-3 ovarian,88.9 µM
same,TGI,OVCAR-5 ovarian,> 100 µM
same,TGI,OVCAR-8 ovarian,> 100 µM
same,TGI,PC-3 prostate,> 100 µM
same,TGI,RPMI-8226 leukemia,> 100 µM
same,TGI,RXF 393 renal,95.2 µM
same,TGI,SF-268 CNS,> 100 µM
same,TGI,SF-295 CNS,> 100 µM
same,TGI,SF-539 CNS,> 100 µM
same,TGI,SK-MEL-2 melanoma,> 100 µM
same,TGI,SK-MEL-28 melanoma,> 100 µM
same,TGI,SK-MEL-5 melanoma,> 100 µM
same,TGI,SK-OV-3 ovarian,> 100 µM
same,TGI,SN12C renal,> 100 µM
same,TGI,SNB-19 CNS,> 100 µM
same,TGI,SNB-75 CNS,> 100 µM
same,TGI,SR leukemia,> 100 µM
same,TGI,SW-620 colon,> 100 µM
same,TGI,T-47D breast,> 100 µM
same,TGI,TK-10 renal,> 100 µM
same,TGI,U251 CNS,> 100 µM
same,TGI,UACC-257 melanoma,> 100 µM
same,TGI,UACC-62 melanoma,> 100 µM
